Laboratory results published in patent publication US20190105367A1, “ANTIMICROBIAL 4-OXOQUINOLIZINES” (Emergent Product Development Gaithersburg Inc., priority 2011, published 2019).
Converted amounts (≈) assume the structure as drawn. Like-named read-outs stand apart in the source and are kept apart here.

How the values were obtained:
[1] = test system: A. baumannii A14; test: MIC without and with sub-inhibitory polymyxin B (Example 4); format: cell-based, Acinetobacter baumannii; conditions: A. baumannii A14; +0.06 μg/ml PB; 2nd experiment
[2] = test system: strains of A. baumannii and one strain of Acinetobacter sp.; test: MIC with sub-inhibitory concentrations (0.25x MIC) of polymyxin B, panel of Acinetobacter strains (Example 4); format: cell-based
[3] = test system: A. baumannii NCTC 13301; test: MIC without and with sub-inhibitory polymyxin B (Example 4); format: cell-based, Acinetobacter baumannii
[4] = test system: A. baumannii ATCC 19606; test: as above; format: cell-based, Acinetobacter baumannii; conditions: for MIC without PB/MIC + PB: A. baumannii ATCC 19606; for MIC: Acinetobacter baumannii
[5] = test system: A. baumannii A329; test: as above; format: cell-based, Acinetobacter baumannii; conditions: A. baumannii A329; +0.06 μg/ml PB; 2nd experiment
[6] = test system: A. baumannii NCTC 13301; test: as above; format: cell-based, Acinetobacter baumannii; remark: listed apart in the source
[7] = test system: A. baumannii A14; test: Preliminary MBC without and with sub-inhibitory polymyxin B (Example 4); format: cell-based, Acinetobacter baumannii; conditions: A. baumannii A14; +0.06 μg/ml polymyxin B; preliminary MBC; 1st experiment
[8] = test system: A. baumannii A489; test: as above; format: cell-based, Acinetobacter baumannii; conditions: Acinetobacter baumannii, preliminary MBC
[9] = test system: A. baumannii A472; test: as above; format: cell-based, Acinetobacter baumannii; conditions: Acinetobacter baumannii, preliminary MBC
[10] = test system: A. baumannii A472; test: MIC without and with sub-inhibitory polymyxin B (Example 4); format: cell-based, Acinetobacter baumannii; conditions: for MIC: Acinetobacter baumannii
[11] = test system: A. baumannii J2; test: as above; format: cell-based, Acinetobacter baumannii; conditions: for MIC without PB/MIC + PB: A. baumannii J2; for MIC: Acinetobacter baumannii
[12] = test system: A. baumannii A401; test: as above; format: cell-based, Acinetobacter baumannii; conditions: A baumannii A 401; ratio, PB 0.06 μg/ml; 1st experiment
[13] = test system: A. baumannii J2; test: Preliminary MBC without and with sub-inhibitory polymyxin B (Example 4); format: cell-based, Acinetobacter baumannii; conditions: Acinetobacter baumannii, preliminary MBC
[14] = test system: A. baumannii A390; test: MIC without and with sub-inhibitory polymyxin B (Example 4); format: cell-based, Acinetobacter baumannii; conditions: +0.06 μg/ml PB, 2nd experiment
[15] = test system: Acinetobacter sp. (H064200250); test: as above; format: cell-based
[16] = test system: A. baumannii A390; test: Preliminary MBC without and with sub-inhibitory polymyxin B (Example 4); format: cell-based, Acinetobacter baumannii; conditions: Acinetobacter baumannii, A390, A. baumannii A390, +0.06 μg/ml PB, 2nd experiment, read-out: MBC
Method: (§1) The plates were incubated for 18-20 hours at 37° C. The MBC was read as the lowest concentration at which colony growth was ca. 90% less than the positive control (i.e. usually where single colonies or no colonies were observed).

[17] = test system: A. baumannii A14; test: as above; format: cell-based, Acinetobacter baumannii; conditions: A. baumannii A14, +0.06 μg/ml PB, 2nd experiment
Method: as §1

[18] = test system: A. baumannii NCTC 13301; test: as above; format: cell-based, Acinetobacter baumannii; conditions: Acinetobacter baumannii
Method: as §1

[19] = test system: A. baumannii A473; test: as above; format: cell-based, Acinetobacter baumannii; conditions: Acinetobacter baumannii, A473, A. baumannii A473, +0.06 μg/ml PB, 2nd experiment, read-out: MBC
Method: as §1

[20] = test system: A. baumannii A489; test: MIC without and with sub-inhibitory polymyxin B (Example 4); format: cell-based, Acinetobacter baumannii; conditions: for MIC without PB/MIC + PB: A. baumannii A489; for MIC: Acinetobacter baumannii
[21] = test system: A. baumannii A14; test: as above; format: cell-based, Acinetobacter baumannii; conditions: 1st experiment
[22] = test system: A. baumannii ATCC 19606; test: Preliminary MBC without and with sub-inhibitory polymyxin B (Example 4); format: cell-based, Acinetobacter baumannii; conditions: Acinetobacter baumannii

NCC[C@H](O)C(=O)N[C@@H]1C[C@H](N)[C@@H](O[C@H]2O[C@H](CN)[C@@H](O)[C@H](O)[C@H]2O)[C@H](O)[C@H]1O[C@H]1O[C@H](CO)[C@@H](O)[C@H](N)[C@H]1O [Amikacin, reference compound] was tested, and the MIC [1] was 8 mg/L (≈ 13.7 µM), the “MIC without PB/MIC + PB” value [1] was 2 and the “Change of activity (MIC) in presence of polymyxin B compared to without polymyxin B” value [2] was “not significantly affected”. For the same compound, the “Range ratios MIC without PB/MIC with PB Oct. 14, 2008 n = 11” value ([2]; 2nd experiment) was 1-16, the “MIC without PB/MIC + PB” value ([3]; A. baumannii NCTC 13301, ratio, PB […], 1st experiment) was at least 1 and the MIC ([3]; Acinetobacter baumannii, NCTC13301, read-out: MIC +[…] PB) was over 128 mg/L. The “MIC without PB/MIC + PB” value ([4]; +0.06 μg/ml PB, 2nd experiment) was 2, the “MIC without PB/MIC + PB” value ([4]; ratio, PB 0.06 μg/ml, 1st experiment) was 2 and the MIC ([4]; ATCC19606, A. baumannii ATCC 19606, +0.06 μg/ml PB, 2nd experiment, read-out: MIC) was 8 mg/L (≈ 13.7 µM). For the same compound, the MIC ([4]; ATCC19606, read-out: MIC +0.06 μg/ml PB, A. baumannii ATCC 19606, +0.06 μg/ml polymyxin B, 1st experiment) was 8 mg/L, the “MIC without PB/MIC + PB” value [5] was 1 and the “MIC without PB/MIC + PB” value ([6]; A. baumannii NCTC 13301, +[…] PB, 2nd experiment) was at least 1. The MIC ([6]; Acinetobacter baumannii, NCTC13301) was 128 mg/L (≈ 219 µM), the “MBC +0.06 μg/ml PB” value [7] was 16 mg/L and the MBC ([8]; A489, A. baumannii A489, +[…] PB, 2nd experiment, read-out: MBC) was 64 mg/L (≈ 109 µM). It also gave an MBC ([8]; A489, read-out: MBC +[…] PB, A. baumannii A489, +[…] polymyxin B, 1st experiment) of 128 mg/L (≈ 219 µM), an MBC ([9]; A472, A. baumannii A472, +[…] PB, 2nd experiment, read-out: MBC) of 32 mg/L (≈ 54.6 µM) and an MBC ([9]; A472, read-out: MBC +[…] PB, A. baumannii A472, +[…] polymyxin B, 1st experiment) of 32 mg/L (≈ 54.6 µM). The “MIC without PB/MIC + PB” value ([10]; A. baumannii A472, ratio, PB […], 1st experiment) was at least 8, the MIC ([10]; A472, A. baumannii A472, +[…] PB, 2nd experiment, read-out: MIC) was 32 mg/L (≈ 54.6 µM) and the MIC ([10]; A472, read-out: MIC +[…] PB, A. baumannii A472, +[…] polymyxin B, 1st experiment) was 16 mg/L (≈ 27.3 µM). For the same compound, the “MIC without PB/MIC + PB” value ([11]; +[…] PB, 2nd experiment) was 16, the “MIC without PB/MIC + PB” value ([11]; ratio, PB […], 1st experiment) was 8 and the MIC ([11]; J2, A. baumannii J2, +[…] PB, 2nd experiment, read-out: MIC) was 0.5 mg/L (≈ 0.854 µM). The MIC ([11]; J2, read-out: MIC +[…] PB, A. baumannii J2, +[…] polymyxin B, 1st experiment) was 4 mg/L (≈ 6.83 µM), the “MIC without PB/MIC + PB” value [12] was at least 1 and the MBC ([13]; J2, A. baumannii J2, +[…] PB, 2nd experiment, read-out: MBC) was 0.5 mg/L (≈ 0.854 µM). The MBC ([13]; J2, read-out: MBC +[…] PB, A. baumannii J2, +[…] polymyxin B, 1st experiment) was 4 mg/L (≈ 6.83 µM), the “MIC without PB/MIC + PB” value ([14]; A. baumannii A390) was at least 2 and the MIC ([14]; Acinetobacter baumannii, A390, A. baumannii A390, read-out: MIC) was 64 mg/L (≈ 109 µM). The “MIC without PB/MIC + PB” value ([15]; Acinetobacter spp. H064200250 (OXA51), +[…] PB, 2nd experiment) was 8, the “MIC without PB/MIC + PB” value ([15]; Acinetobacter spp. H064200250, ratio, PB […], 1st experiment) was 1 and the MIC ([15]; Acinetobacter, Acinetobacter spp. H064200250 (OXA51), +[…] PB, 2nd experiment, read-out: MIC) was 1 mg/L (≈ 1.71 µM). For the same compound, the MBC [16] was 64 mg/L (≈ 109 µM), the MBC [17] was 8 mg/L (≈ 13.7 µM) and the MBC ([18]; NCTC13301, A. baumannii NCTC 13301, +[…] PB, preliminary MBC, 2nd experiment, read-out: MBC) was 64 mg/L (≈ 109 µM). For the same compound, the MBC ([18]; NCTC13301, read-out: MBC +[…] PB) was over 128 mg/L, the MBC [19] was 128 mg/L (≈ 219 µM) and the “MIC without PB/MIC + PB” value ([20]; +[…] PB, 2nd experiment) was at least 2. For the same compound, the “MIC without PB/MIC + PB” value ([20]; ratio, PB […], 1st experiment) was at least 1, the MIC ([20]; A489, A. baumannii A489, +[…] PB, 2nd experiment, read-out: MIC) was 64 mg/L (≈ 109 µM) and the MIC ([20]; A489, read-out: MIC +[…] PB, A. baumannii A489, +[…] polymyxin B, 1st experiment) was 128 mg/L (≈ 219 µM). The “MIC +0.06 μg/ml PB” value ([21]; +0.06 μg/ml polymyxin B) was 16 mg/L, the “MIC without PB/MIC + PB” value ([21]; ratio, PB 0.06 μg/ml) was 2 and the MBC ([22]; ATCC19606, A. baumannii ATCC 19606, +0.06 μg/ml PB, 2nd experiment, read-out: MBC) was 8 mg/L (≈ 13.7 µM). For the same compound, the MBC ([22]; ATCC19606, read-out: MBC +0.06 μg/ml PB, A. baumannii ATCC 19606, +0.06 μg/ml polymyxin B, 1st experiment) was 8 mg/L.
